Key:
Type in all cases: cell-based, human
[1] = test system: skin barrier marker genes in differentiated NHEK; assay: comparative analysis of qPCR data from two donors with scoring system, single amino acids; details: for ranking as most effective or least effective amino acids (scoring system): qPCR data from two donors
From the text: The scoring system was developed to address the numerous variables arising from the experimental results. […] See, e.g., FIGS. 3 and 4.
(§1) To test the effect of amino acid treatment on epithelial skin barrier, a cellular model of differentiated normal human epidermal keratinocytes (NHEK) was utilized. Commercially available NHEK (ATCC), derived from three diverse healthy donors, were used.

[2] = test system: EGF, PDGF, FGF2, and PPARD genes (skin barrier markers); assay: single amino acids and combinations on barrier marker genes EGF, FGF2, PDGF, PPARD in differentiated NHEK (FIG. 28); details: alone or in combination; action on skin barrier markers
Method: Treatment time-4 h. […] Exemplary barrier marker genes examined as follows: Epidermal growth factor (EGF); fibroblast growth factor 2 (FGF2); platelet derived growth factor (PDGF); Peroxisome Proliferator Activated Receptor Delta (PPARD).
Once the skin barrier marker panel was identified, a scoring system by which to evaluate different amino acids or combinations thereof under consideration was developed. The scoring system was developed to address the numerous variables arising from the experimental results. […] Sec, e.g., FIG. 28. […] See, e.g., FIG. 29.
as §1
The marker genes: epidermal growth factor (EGF); platelet-derived growth factor (PDGF), fibroblast growth factor 2 (FGF2), peroxisome proliferator activated receptor delta (PPARD).
Amino acid(s) are mixed in previously established concentrations in water and added to amino acid-deprived culture medium.
mRNA is extracted, converted to cDNA, and analyzed by qPCR method using custom TaqMan array 384-well plates (Thermo Fisher Scientific) containing the above-mentioned genes. Control housekeeping genes were included to normalize the mRNA expression: GAPDH and/or YWHAZ. The array plate contained the genes and samples were analyzed in by qPCR.

TGFB mRNA = TGFB mRNA fold change in donor keratinocytes, 4GAA and retinol (qPCR); details: 4 h, amino acid-deprived medium, 4GAA 4 mM, ROL 10 μM
Method: (§2) FIGS. 17A-17C show the fold change of a specific gene mRNA comparing the 4 amino acid combination (Ala, Gln, Gly, Ser; 4GAA; 4 mM), and retinol (ROL; 10 μM), alone or in combination, to control (CTR; untreated control without amino acids or retinol) with Donor E, Donor G. Donor O, Donor R, and Donor T human-derived epidermal keratinocytes (NHEK) with a 4 h treatment in amino acid (AA)-deprived medium. The data are shown in graphical form showing CTR; 4GAA (4 mM); ROL (10 μM); 4GAA (4 mM)+ROL (10 μM) combination.
(§3) Keratinocytes from different donors (e.g., human-derived epidermal keratinocytes (NHEK)), skin equivalents (e.g., 3D models (human epidermal skin equivalents)), or fibroblasts (e.g., human dermal fibroblasts, adult (HDFa)) were cultured in amino acid-deprived media or complete media for 4 hours or 24 hours after complete differentiation and, in parallel, were treated with an amino acid combination (4GAA; alanine, glutamine, glycine, serine) at 4 mM, 10 μM retinol (ROL), or the combination of 4 mM 4GAA and 10 μM ROL. Cells were harvested, RNA was extracted, and qPCR analysis was performed with a housekeeping gene, e.g., GAPDH.
(§4) FIGS. 17A-17C and 18A-18C show the graphical results of the fold change, where the average fold change is depicted by the horizontal bar for each condition and each of the donors (Donors E, G, O, R, T) is depicted by a colored circle. […]

COL1A1 mRNA = COL1A1 mRNA fold change in donor keratinocytes, 4GAA and retinol (qPCR); details: 4 h, amino acid-deprived medium, 4GAA 4 mM, ROL 10 μM
Method: as §2, §3, §4

HAS2 mRNA = HAS2 mRNA fold change in donor keratinocytes, 4GAA and retinol (qPCR); details: 4GAA 4 mM, ROL 10 μM
Method: (§5) FIGS. 18A-18C show the fold change of a specific gene mRNA comparing the 4 amino acid combination (Ala, Gln, Gly, Ser; 4GAA; 4 mM), and retinol (ROL; 10 μM), alone or in combination with Donor E. Donor G. Donor O. Donor R. and Donor T human-derived epidermal keratinocytes (NHEK) to control (CTR; untreated control without amino acids or retinol) with a 4 h treatment in amino acid (AA)-deprived medium. The data of FIGS. 18A-18C are shown in graphical form showing CTR; 4GAA (4 mM); ROL (10 μM); 4GAA (4 mM)+ROL (10 μM) combination. […] FIGS. 18D-18F show the data in tabular form (Donor E (n=3). Donor G (n=3). Donor O (n=3). Donor R (n=3), and Donor T (n=3)) for fold change of HAS1 mRNA. HAS2 mRNA, and HAS3 mRNA, respectively, and in tabular form showing the fold change for each of the specified conditions under each respective graphical form.
(§6) FIGS. 19A-19D show the fold change of a specific gene mRNA comparing the 4 amino acid combination (Ala. Gln. Gly, Ser; 4GAA; 4 mM), and retinol (ROL; 10 μM), alone or in combination to control (CTR; untreated control without amino acids or retinol) with Donor O human-derived epidermal keratinocytes (NHEK) with a 24 h treatment in complete medium. The data of FIGS. 19A-19D are shown in graphical form showing CTR; 4GAA (4 mM); ROL (10 μM); 4GAA (4 mM)+ROL (10 μM) combination. […]

HAS3 mRNA = HAS3 mRNA fold change in donor keratinocytes, 4GAA and retinol (qPCR); details: 4GAA 4 mM, ROL 10 μM
Method: as §5, §6

[3] = Donor O and Donor R keratinocytes, 24 h, complete medium
[4] = donor keratinocytes, 4 h, amino acid-deprived medium

SMILES	ranking as most effective or least effective amino acids (scoring system) [1]	effect on skin regeneration including skin barrier function [2]	also measured
NCC(=O)O [Gly, glycine]	most effective	beneficial effect	–
CC(C)[C@H](N)C(=O)O [valine]	–	beneficial effect	–
CC[C@H](C)[C@H](N)C(=O)O [isoleucine]	–	beneficial effect	–
CC1=C(/C=C/C(C)=C/C=C/C(C)=C/CO)C(C)(C)CCC1 [ROL, retinol]	–	–	TGFB mRNA expression (TGFB mRNA): upregulated; COL1A1 mRNA expression (COL1A1 mRNA): upregulated; HAS2 mRNA gene expression (HAS2 mRNA; [3]): upregulated; HAS2 gene expression (HAS2 mRNA; [4]): upregulated; HAS3 mRNA gene expression (HAS3 mRNA; [3]): upregulated; HAS3 gene expression (HAS3 mRNA; [4]): upregulated
N[C@@H](Cc1c[nH]c2ccccc12)C(=O)O [Trp, tryptophan]	–	beneficial effect	effects in preliminary screens [1]: positive effects
O=C(O)[C@@H]1CCCN1 [Pro]	least effective	–	–
C[C@@H](O)[C@H](N)C(=O)O [Thr, threonine]	least effective	beneficial effect	–
NC(=O)CC[C@H](N)C(=O)O [Gln, glutamine]	most effective	beneficial effect	–
N[C@@H](CO)C(=O)O [Ser, serine]	most effective	beneficial effect	–
N[C@@H](CC(=O)O)C(=O)O [Asp, aspartic acid]	least effective	–	–
N=C(N)NCCC[C@H](N)C(=O)O [Arg, arginine]	–	beneficial effect	effects in preliminary screens [1]: positive effects
C[C@H](N)C(=O)O [Ala, alanine]	most effective	beneficial effect	–
N[C@@H](Cc1ccc(O)cc1)C(=O)O [Tyr, tyrosine]	least effective	–	–
N[C@@H](CS)C(=O)O [Cys, cysteine]	least effective	–	–

Reference: US20250000767A1, “FORMULATIONS AND METHODS FOR SKIN REGENERATION” (ENTRINSIC, LLC, priority 2023, published 2025)
